Experimental data taken from US7875436B2 (priority 2004, dated 2011).
“Also recorded” adds a separate entry of the source.

Columns and labels:
BoNTA [1] = biological target: T1, BoNTA (Clostridium botulinum, UniProt P0DPI1)
Target sequence in this assay (P0DPI1 2-448 limits assumed): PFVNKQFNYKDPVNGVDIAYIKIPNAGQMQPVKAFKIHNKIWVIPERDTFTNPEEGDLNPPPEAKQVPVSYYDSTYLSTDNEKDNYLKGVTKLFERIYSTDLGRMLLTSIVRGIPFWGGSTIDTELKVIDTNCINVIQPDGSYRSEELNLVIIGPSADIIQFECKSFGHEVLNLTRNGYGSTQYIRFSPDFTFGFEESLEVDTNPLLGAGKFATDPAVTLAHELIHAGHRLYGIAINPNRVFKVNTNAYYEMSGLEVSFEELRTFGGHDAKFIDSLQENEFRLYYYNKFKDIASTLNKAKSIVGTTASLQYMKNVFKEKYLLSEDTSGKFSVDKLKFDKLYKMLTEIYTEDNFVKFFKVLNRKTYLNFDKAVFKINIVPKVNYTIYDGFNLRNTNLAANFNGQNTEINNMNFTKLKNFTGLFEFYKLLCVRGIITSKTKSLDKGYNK

BoNTA [2] = biological target: T1, BoNTA; remark: listed apart in the source
Target sequence in this assay (P0DPI1 whole entry, looked up): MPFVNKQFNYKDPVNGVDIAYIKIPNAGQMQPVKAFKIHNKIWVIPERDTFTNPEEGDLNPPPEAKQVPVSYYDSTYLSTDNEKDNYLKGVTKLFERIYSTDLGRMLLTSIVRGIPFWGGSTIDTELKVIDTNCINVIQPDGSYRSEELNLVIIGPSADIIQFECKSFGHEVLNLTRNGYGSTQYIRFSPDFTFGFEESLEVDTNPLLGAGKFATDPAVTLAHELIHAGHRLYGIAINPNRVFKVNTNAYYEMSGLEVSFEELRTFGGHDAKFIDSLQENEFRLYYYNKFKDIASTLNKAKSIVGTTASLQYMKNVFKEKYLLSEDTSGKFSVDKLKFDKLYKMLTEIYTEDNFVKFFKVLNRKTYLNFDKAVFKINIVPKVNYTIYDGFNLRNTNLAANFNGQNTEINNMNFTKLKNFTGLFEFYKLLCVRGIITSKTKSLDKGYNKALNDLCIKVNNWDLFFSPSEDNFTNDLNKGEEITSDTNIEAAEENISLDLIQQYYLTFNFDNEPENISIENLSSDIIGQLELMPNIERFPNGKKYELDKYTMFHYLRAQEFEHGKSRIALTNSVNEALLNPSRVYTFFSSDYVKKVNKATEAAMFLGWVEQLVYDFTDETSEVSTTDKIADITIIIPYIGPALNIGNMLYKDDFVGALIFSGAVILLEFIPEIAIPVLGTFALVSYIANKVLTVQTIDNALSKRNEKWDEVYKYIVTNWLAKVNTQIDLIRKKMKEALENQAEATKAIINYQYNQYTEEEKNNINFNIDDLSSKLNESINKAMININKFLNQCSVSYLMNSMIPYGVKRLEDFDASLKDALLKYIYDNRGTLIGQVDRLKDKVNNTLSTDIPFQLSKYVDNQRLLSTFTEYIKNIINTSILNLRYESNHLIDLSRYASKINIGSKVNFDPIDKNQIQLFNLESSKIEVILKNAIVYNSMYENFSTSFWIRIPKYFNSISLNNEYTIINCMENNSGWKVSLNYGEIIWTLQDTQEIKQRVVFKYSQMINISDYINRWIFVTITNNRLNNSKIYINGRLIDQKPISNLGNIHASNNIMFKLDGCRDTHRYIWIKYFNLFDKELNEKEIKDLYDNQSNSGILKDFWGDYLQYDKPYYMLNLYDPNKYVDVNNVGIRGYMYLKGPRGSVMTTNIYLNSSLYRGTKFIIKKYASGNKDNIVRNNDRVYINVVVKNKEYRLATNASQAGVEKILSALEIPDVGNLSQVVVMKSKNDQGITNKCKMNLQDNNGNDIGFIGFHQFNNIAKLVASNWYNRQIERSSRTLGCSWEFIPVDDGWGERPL

BoNTA [3] = biological target: T1, BoNTA; remark: listed apart in the source
Target sequence in this assay (P0DPI1 whole entry, looked up): as above

## Ac-S-N-K-T-R-I-D-E-A-N-Pya-R-A-Nop-K-Nle-L-NH2 [Pya^197Nop^200(187-203)SNAP25]
BoNTA [1]
  cleavage by the toxin BoNT/A: weakly cleaved

## ethylene diamine tetracetate [EDTA]
BoNTA [1]
  effect on fluorescence emitted by degradation of substrate S1 by BoNT/A (enzymatic activity): inhibition of the fluorescence

## Ac IIGNLRHMALDMGNEIDTQNRQIDRIMEKADSNKTRIDEAN Nop R A Pya K Nle L NH2 [Substrate S9]
BoNTA [2]
  metabolites formed on cleavage by BoNTA: only two metabolites formed
BoNTA [3]
  parameters (Km, kcat, Vmax) for the hydrolysis, compared with SNAP 25: more favorable than for SNAP 25; also recorded: better than those reported for SNAP 25 itself and other substrates reported to date
BoNTA [1]; pH 7.4
  BoNT/A concentration that can be quantified: 0.2 ng/mL
